Legend:
Assay type in all cases: cell-based, Human
MUC1(Y46F) C-ter = assay: Mitochondrial localization of MUC1(Y46F) C-ter in HCT116/MUC1(Y46F) cells (immunoblot of mitochondrial fractions)
Procedure: (§1) Cell culture. Human HCT116 colon carcinoma cells (ATCC, Manassas, Va.) were cultured in Dulbecco's modified Eagle's medium/F12 with 10% heat-inactivated fetal bovine serum, 100 units/ml penicillin, […] streptomycin and 2 mM L-glutamine. Cells were treated with EGF (10 ng/ml; Calbiochem-Novabiochem, San Diego, Calif.), HRG (20 ng/ml; Calbiochem-Novabiochem), cisplatin (CDDP; Sigma), etoposide (Sigma), rhTNF-a (Promega, Madison, Wis.), CHX (Sigma) or rhTRAIL (100 ng/ml; Calbiochem-Novabiochem).
(§2) Immunoblot analysis. Lysates were prepared from subconfluent cells as described (Li et al., 2001a). Equal amounts of protein were separated by SDS-PAGE and transferred to nitrocellulose membranes. […] The immunocomplexes were detected with horseradish peroxidase-conjugated secondary antibodies and enhanced chemiluminescence (ECL, Amersham Biosciences, Piscataway, N.J.). Intensity of the signals was determined by densitometric scanning. […]

MUC1 C-ter [1] = assay: Mitochondrial localization of MUC1 C-ter in HCT116/MUC1 cells (immunoblot of mitochondrial fractions)
Procedure: as §1, §2

HCT116/vector cells [2] = assay: Apoptosis by analysis of sub-G1 DNA, HCT116/vector cells
Procedure: Methods. Apoptotic cells were quantified by analysis of sub-G1 DNA and TUNEL staining. To assess sub-G1 DNA content, cells were harvested, washed with PBS, fixed with 80% ethanol, and incubated in PBS containing 20 ng/ml RNase (Roche) for 60 min at 37° C. Cells were then stained with […] propidium iodide (Sigma) for 30 min at room temperature in the dark. DNA content was analyzed by flow cytometry (EPICS XL-MCL, Coulter Corp.). Apoptotic cells with DNA fragmentation were detected by staining with the In Situ cell death detection kit (TUNEL; Roche Applied Science) and visualized by confocal microscopy (ZEISS LSM510). After staining, cells were analyzed by flow cytometry. Other experimental procedures and methods were as described in Example 1.

HCT116/MUC1(Y46F) cells = assay: Cell death after CDDP treatment, HCT116/MUC1(Y46F) cells; details: CDDP for 72 h
Procedure: as §1
(§3) Methods. Experimental procedures and methods were as described in Example 1.

HCT116/MUC1 cells = assay: Cell death after CDDP treatment, HCT116/MUC1 cells; details: CDDP for 72 h, cessation of cell growth
Procedure: as §1, §3

cytochrome c = assay: Release of mitochondrial cytochrome c to the cytosol (immunoblot), HCT116/vector cells; details: HCT116/vector cells treated with CDDP
Procedure: as §1, §2

HCT116/vector cells [3] = assay: Cell death after CDDP treatment, HCT116/vector cells; details: CDDP for 72 h
Procedure: as §1, §3

MUC1 C-ter [4] = assay: Expression of MUC1 C-ter after CHX; details: CHX treatment
Procedure: Immunoblot analysis. Lysates were prepared from subconfluent cells as described (Li et al., 2001a). Equal amounts of protein were separated by SDS-PAGE and transferred to nitrocellulose membranes. […] The immunocomplexes were detected with horseradish peroxidase-conjugated secondary antibodies and enhanced chemiluminescence (ECL, Amersham Biosciences, Piscataway, N.J.). Intensity of the signals was determined by densitometric scanning.
Methods. Apoptotic cells were quantified by analysis of sub-G1 DNA and TUNEL staining. […] DNA content was analyzed by flow cytometry (EPICS XL-MCL, Coulter Corp.). Apoptotic cells with DNA fragmentation were detected by staining with the In Situ cell death detection kit (TUNEL; Roche Applied Science) and visualized by confocal microscopy (ZEISS LSM510). After staining, cells were analyzed by flow cytometry. […]

## heregulin [HRG]
MUC1(Y46F) C-ter; HRG 20 ng/ml
  effect on mitochondrial localization of MUC1(Y46F) C-ter: little effect
MUC1 C-ter [1]; HRG 20 ng/ml, 0.5 h, persisted through 3 h
  increase in localization of MUC1 C-ter to mitochondria: 2.3 fold

## TNF-α
HCT116/vector cells [2]; 20 ng/ml TNF-α in the presence of 10 ng/ml cycloheximide (CHX), 12 hr
  induction of apoptosis: associated with induction of HCT116/vector cell apoptosis
HCT116/vector cells [2]; TNF-α alone
  induction of apoptosis: failed to induce apoptosis

## [NH2][Pt]([NH2])([Cl])[Cl] [CDDP, cisplatin]
HCT116/MUC1(Y46F) cells
  cell death: > 90%
HCT116/MUC1 cells
  cell death: < 30%
Cytochrome c
  levels of cytosolic cytochrome c: increased levels of cytosolic cytochrome c
HCT116/vector cells [2]; 100 μM CDDP for 24 h
  apoptosis (sub-G1 DNA): approximately 40%
HCT116/vector cells [3]
  cell death: > 90%

## EGF: EGF (10 ng/ml; Calbiochem-Novabiochem) (NSDSECPLSHDGYCLHDGVCMYIEALDKYACNCVVGYIGERCQYRDLKWWELR; Epidermal growth factor; UniProt P01133 971-1023, looked up)
MUC1(Y46F) C-ter; EGF 10 ng/ml
  effect on mitochondrial targeting of MUC1 C-ter: little effect
MUC1 C-ter [1]; EGF 10 ng/ml
  effect on mitochondrial targeting of MUC1 C-ter: little effect

## C[C@@H]1C[C@@H]([C@H](O)CC2CC(=O)NC(=O)C2)C(=O)[C@@H](C)C1 [CHX, cycloheximide]
MUC1 C-ter [4]
  effect on expression of MUC1 C-ter: no apparent effect
